Source: patent US6642392B1 (priority 1997, dated 2003)
Like-named read-outs stand apart in the source and are kept apart here.

Key:
Format in all cases: in vivo
[1] = test system: Pyricularia oryzae; conditions: rice blast
[2] = test system: Eiysiphe graminis f. sp. tritici; assay: Test A: wheat powdery mildew, preventive spray on wheat seedlings; conditions: wheat powdery mildew
Procedure, shortened: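 Compounds (3% acetone, 250 ppm Trem 014) sprayed to run-off on wheat seedlings, inoculated next day with spore dust. Incubated 7 days at 20° C before disease rating, 0–100% control relative to untreated controls.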

[3] = test system: Phytophthora infestans; conditions: tomato late blight
[4] = test system: Botrytis cinerea; assay: Test E: gray mold, preventive spray on cucumber seedlings; conditions: gray mold on cucumber
Procedure, shortened: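 Compounds in 3% acetone were suspended with 250 ppm Trem 014 surfactant and sprayed to run-off on cucumber seedlings. B. cinerea spores were inoculated next day, then 48 h saturated humidity at 20° C and 5 days at 20° C. Disease control rated 0–100% versus controls.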

[5] = test system: Puccinia recondita; assay: Test B: wheat leaf rust, preventive spray on wheat seedlings; conditions: wheat leaf rust
Procedure, shortened: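 Wheat seedlings were sprayed to run-off with compound (3% acetone, 250 ppm Trem 014), then inoculated with P. recondita spores the next day. They were held 24 h saturated at 20 °C, then 6 days at 20 °C. Ratings are 0–100% disease control versus controls.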

[6] = 100 = 100% disease control, 0 = no control, unmarked entries (standard test concentration)
[7] = 100 = 100% disease control, 0 = no control relative to controls, unmarked entries (standard test concentration)

| SMILES | Test C disease control rating ([1]; tested at 40 ppm) | Test A disease control rating ([2]; tested at 40 ppm) | Test D disease control rating ([3]; tested at 40 ppm) | Test E disease control rating ([4]; tested at 40 ppm) | Test B disease control rating ([5]; tested at 40 ppm) | Test C disease control rating [1, 6] | Test A disease control rating [2, 7] | Test D disease control rating [3, 6] | Test E disease control rating [4, 6] | Test B disease control rating [5, 6] |
| --- | --- | --- | --- | --- | --- | --- | --- | --- | --- | --- |
| CC(C(C#N)C(=O)NCC=Cc1cccc(Br)c1)C(C)(C)C (mixture of isomers) [compound 76] | 0% | 0% | 19% | 0% | 0% |  |  |  |  |  |
| CCC1(C(=O)NC(C)COc2cccc(I)c2)C(C)C1(Cl)Cl (mixture of isomers) [compound 88] | 0% | 52% | 0% | 0% | 0% |  |  |  |  |  |
| CCC1(C(=O)NC(C)COc2ccccc2OC(F)(F)C(F)F)C(C)C1(Cl)Cl (mixture of isomers) [compound 90] |  |  |  |  |  | 32% | 84% | 0% | 0% | 0% |
| CCC1(C(=O)NC(C)COc2ccccc2SC(F)(F)C(F)F)C(C)C1(Cl)Cl (mixture of isomers) [compound 91] |  |  |  |  |  | 53% | 74% | 0% | 0% | 0% |
| CCC1(C(=O)NC(C)COc2ccccc2CF)C(C)C1(Cl)Cl (mixture of isomers) [compound 92] | 0% | 60% | 0% | 0% | 0% |  |  |  |  |  |
| CCC1(C(=O)NC(C)COc2cccc(CF)c2)C(C)C1(Cl)Cl (mixture of isomers) [compound 93] | 85% | 57% | 19% | 0% | 0% |  |  |  |  |  |
| CCC1(C(=O)NC(C)COc2ccccc2C)C(C)C1(Cl)Cl (mixture of isomers) [compound 95] | 94% | 52% | 0% | 0% | 86% |  |  |  |  |  |
| CCC1(C(=O)NC(C)COc2cccc(C)c2)C(C)C1(Cl)Cl (mixture of isomers) [compound 96] | 0% | 0% | 90% | 0% | 0% |  |  |  |  |  |
| CCC1(C(=O)NC(C)COc2cccc(CF)c2)C(C)C1(Cl)Cl (mixture of isomers) [compound 102] | 0% | 60% | 0% | 0% | 0% |  |  |  |  |  |
| CCC1(C(=O)NC(C)COc2ccc(Br)cc2F)C(C)C1(Cl)Cl (mixture of isomers) [compound 122] |  |  |  |  |  | 0% | 0% | 0% | 0% | 0% |
| CCC1(C(=O)NC(C)COc2c(F)cccc2C#N)C(C)C1(Cl)Cl (mixture of isomers) [compound 128] |  |  |  |  |  | 74% | 86% | 13% | 0% | 0% |
| CCC1(C(=O)NC(C)COc2ccc(F)cc2C#N)C(C)C1(Cl)Cl (mixture of isomers) [compound 129] |  |  |  |  |  | 74% | 38% | 0% | 0% | 26% |
| CCC1(C(=O)NC(C)COc2cccc(F)c2C#N)C(C)C1(Cl)Cl (mixture of isomers) [compound 130] |  |  |  |  |  | 32% | 0% | 2% | 0% | 0% |
| CCC1(C(=O)NC(C)COc2cccc(Cl)c2C#N)C(C)C1(Cl)Cl (mixture of isomers) [compound 131] |  |  |  |  |  | 53% | 0% | 52% | 0% | 0% |
| CCC1(C(=O)NC(C)COc2cccc(I)c2C#N)C(C)C1(Cl)Cl (mixture of isomers) [compound 132] |  |  |  |  |  | 0% | 0% | 2% | 0% | 0% |
| CCC1(C(=O)NC(C)COc2cccc(C(F)(F)F)c2C#N)C(C)C1(Cl)Cl (mixture of isomers) [compound 133] |  |  |  |  |  | 0% | 0% | 0% | 0% | 0% |
| CCC1(C(=O)NC(C)COc2c(C#N)cccc2C(F)(F)F)C(C)C1(Cl)Cl (mixture of isomers) [compound 134] |  |  |  |  |  | 0% | 0% | 30% | 0% | 0% |
| CCC1(C(=O)NC(C)COc2cc(F)cc(F)c2C#N)C(C)C1(Cl)Cl (mixture of isomers) [compound 135] |  |  |  |  |  | 53% | 0% | 2% | 0% | 0% |
| CCC1(C(=O)NC(C)COn2c(C)cc(C)c2C#N)C(C)C1(Cl)Cl (mixture of isomers) [compound 136] |  |  |  |  |  | 78% | 34% | 0% | 0% | 0% |
| CCC1(C(=O)NC(C)COn2cc(Br)cc2C#N)C(C)C1(Cl)Cl (mixture of isomers) [compound 137] |  |  |  |  |  | 53% | 0% | 0% | 0% | 0% |
| CCC1(C(=O)NC(C)COn2cc(Cl)cc2C#N)C(C)C1(Cl)Cl (mixture of isomers) [compound 138] |  |  |  |  |  | 53% | 0% | 13% | 0% | 0% |
| CCC1(C(=O)NC(C)COn2c(C#N)cc(Cl)c2Cl)C(C)C1(Cl)Cl (mixture of isomers) [compound 139] |  |  |  |  |  | 91% | 71% | 0% | 0% | 0% |
| CCC1(C(=O)NC(C)COn2c(C#N)cc(Br)c2C)C(C)C1(Cl)Cl (mixture of isomers) [compound 141] |  |  |  |  |  | 74% | 38% | 84% | 0% | 68% |
| CCC1(C(=O)NC(C)CCn2c(C#N)cc(Br)c2C)C(C)C1(Cl)Cl (mixture of isomers) [compound 143] |  |  |  |  |  | 53% | 0% | 0% | 0% | 0% |
| CCC1(C(=O)NC(C)CCn2cc(Cl)cc2C#N)C(C)C1(Cl)Cl (mixture of isomers) [compound 144] |  |  |  |  |  | 53% | 0% | 0% | 0% | 28% |
| CC(COc1c(Cl)cc(Cl)cc1Cl)NC(=O)C(C#N)C(C)(C)C (mixture of isomers) [compound 172] |  |  |  |  |  | 86% | 0% | 0% | 95% | 0% |
| CC(COc1ccccc1CF)NC(=O)C(C#N)C(C)(C)C (mixture of isomers) [compound 175] | 74% | 0% | 33% | 0% | 0% |  |  |  |  |  |
| Cc1cccc(OCC(C)NC(=O)C(C#N)C(C)(C)C)c1 (mixture of isomers) [compound 176] |  |  |  |  |  | 94% | 77% | 56% | 6% | 0% |
| CCc1cccc(OCC(C)NC(=O)C(C#N)C(C)(C)C)c1 (mixture of isomers) [compound 177] |  |  |  |  |  | 94% | 62% | 35% | 6% | 0% |
| C=CCc1cc(C)ccc1OCC(C)NC(=O)C(C#N)C(C)(C)C (mixture of isomers) [compound 185] |  |  |  |  |  | 86% | 0% | 9% | 45% | 28% |
